Test systems include IGROV1 ovarian; LOX IMVI melanoma; MALME-3M melanoma; SF-295 CNS; SF-539 CNS; UACC-62 melanoma; HCT-116 colon; MDA-MB-231 breast; HOP-92 NSCLC; T-47D breast.
What all share (assay): inhibition of tumour cell growth, NCI panel, 48 h

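Exposure lasted 48 hours, with cells grown in 96-well plates and compounds tested at five concentrations. At the GI50, growth is halved. TGI is the concentration that stops growth completely.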

For the molecule `CC1CCP(=O)(c2ccccc2)CC1` (configuration not stated), the TGI in the assay with IGROV1 ovarian, in the assay with LOX IMVI melanoma, with MALME-3M melanoma, in the assay on SF-295 CNS, in the assay with SF-539 CNS and in the assay with UACC-62 melanoma was more than 100 µM in each case.
Turning to `Cc1nc2cc(Nc3nc(Nc4ccc(F)cc4)nc(N4CCN(C)CC4)n3)ccc2n1Cc1ccccc1`, the GI50 in the assay with HCT-116 colon is 1.33 µM; in the assay with IGROV1 ovarian, 2.45 µM; with LOX IMVI melanoma, 1.79 µM; in the assay on MDA-MB-231 breast, 1.69 µM; in the assay with SF-295 CNS it was 1.82 µM; in the assay with SF-539 CNS, 1.73 µM. For the same molecule, the TGI was found to be 3.06 µM in the assay on HCT-116 colon; 5.83 µM with IGROV1 ovarian; 3.41 µM with LOX IMVI melanoma; 3.36 µM in the assay on MDA-MB-231 breast; 3.6 µM with SF-295 CNS; 3.13 µM in the assay with SF-539 CNS.
`CC1(C)CC(=O)C(=[N+]=[N-])C(=O)C1`: the TGI in the assay on HCT-116 colon, in the assay with HOP-92 NSCLC, in the assay with IGROV1 ovarian, in the assay with LOX IMVI melanoma, in the assay with MALME-3M melanoma and in the assay on SF-295 CNS was more than 100 µM throughout. For the same molecule, the TGI in the assay with SF-539 CNS and with UACC-62 melanoma was more than 100 µM throughout.
`COc1cc(Cl)c2c3c(c(C(=O)c4ccccc4)oc13)CCC2`: the TGI in the assay with HCT-116 colon, with IGROV1 ovarian, with LOX IMVI melanoma, in the assay with SF-295 CNS, in the assay with SF-539 CNS and in the assay on UACC-62 melanoma was more than 100 µM throughout.
Consider `COc1cc(NCC2COc3c(ccc(OC)c3OC)C2=O)c([N+](=O)[O-])cc1OC` (configuration not stated), for which the TGI in the assay with HCT-116 colon, with IGROV1 ovarian, in the assay on LOX IMVI melanoma, with MDA-MB-231 breast, in the assay on SF-295 CNS and with SF-539 CNS was more than 100 µM throughout. Further, the TGI in the assay with T-47D breast and in the assay with UACC-62 melanoma was more than 100 µM throughout.
Regarding `O=C1c2ccn(CCCCN3CCCCC3)c2C(=O)c2c1c(O)c1ccccc1c2O`, the GI50 is 7.76 µM in the assay with HCT-116 colon; 3.68 µM with HOP-92 NSCLC; 11.1 µM in the assay with IGROV1 ovarian; 1.72 µM in the assay on LOX IMVI melanoma; 7.58 µM with MALME-3M melanoma; 13.2 µM in the assay on SF-295 CNS. Moreover, the GI50 was 6 µM with SF-539 CNS and 23.6 µM in the assay with T-47D breast. The TGI was more than 53.9 µM in the assay on HCT-116 colon; 22.9 µM in the assay on HOP-92 NSCLC; more than 100 µM with IGROV1 ovarian; 4.3 µM in the assay on LOX IMVI melanoma; 20.4 µM in the assay with MALME-3M melanoma; 45.4 µM in the assay with SF-295 CNS. Besides, the TGI is 42.1 µM in the assay on SF-539 CNS, more than 59.6 µM with T-47D breast and 1.32 µM in the assay with UACC-62 melanoma.
As for `Cc1ccc(NC(=O)C2C(=O)N(c3ccc(C)c(C)c3)C(=O)/C2=N\NC(N)=S)cc1C` (configuration not stated), the TGI with HCT-116 colon, in the assay on HOP-92 NSCLC, in the assay with IGROV1 ovarian, in the assay with LOX IMVI melanoma, in the assay on MALME-3M melanoma and in the assay with SF-295 CNS was more than 100 µM throughout. Besides, the TGI in the assay on SF-539 CNS and in the assay on UACC-62 melanoma was more than 100 µM each time.
Regarding `Cn1c2ccccc2c(=O)c2c([N+](=O)[O-])ccc(NCCN)c21`, the TGI with HCT-116 colon was 15.3 µM; with HOP-92 NSCLC, 20.2 µM; in the assay on IGROV1 ovarian it was 27.2 µM; in the assay with MALME-3M melanoma, 28.9 µM; in the assay on SF-295 CNS, 25 µM; in the assay with SF-539 CNS it was 20.8 µM. This molecule returned a TGI with UACC-62 melanoma of 29.6 µM.
As to `CCN(CC)CCOc1ccc2c(c1)C(=O)c1cc(OCCN(CC)CC)ccc1-2`, the GI50 in the assay on HCT-116 colon was 3.45 µM; in the assay on IGROV1 ovarian, 6.65 µM; in the assay with LOX IMVI melanoma, 4.31 µM; in the assay on MALME-3M melanoma, 15.6 µM; in the assay with MDA-MB-231 breast, 10.4 µM; in the assay on SF-295 CNS it was 17.2 µM. Moreover, the results for the GI50 in the assay with SF-539 CNS, in the assay on T-47D breast and in the assay on UACC-62 melanoma were 2.54 µM, 23.8 µM and 12.4 µM, respectively. The TGI in the assay with HCT-116 colon stood at 15.2 µM; with IGROV1 ovarian, 43.2 µM; with LOX IMVI melanoma, 16.7 µM; with MALME-3M melanoma it was 33.6 µM; in the assay on MDA-MB-231 breast, 33.8 µM; in the assay with SF-295 CNS, 49.1 µM. Also, the TGI with SF-539 CNS was 5.72 µM; in the assay on T-47D breast, 56.2 µM; with UACC-62 melanoma, 26.7 µM.
Consider `BrC1=CC=C2NCCCCCCN=C3C=CC(Br)=CC=C3NCCCCCCN=C2C=C1`, for which the TGI with HCT-116 colon, in the assay with HOP-92 NSCLC, in the assay on IGROV1 ovarian, in the assay with LOX IMVI melanoma, in the assay with MALME-3M melanoma and in the assay on SF-295 CNS was more than 25.5 µM in each case. Moreover, the TGI with SF-539 CNS and in the assay with UACC-62 melanoma was more than 25.5 µM each time.
As for `CCCCCC(O)(CCCCC)CCCCCCCCC1=C(O)c2[nH]c(=O)ccc2C(=O)C1=O`, the TGI with HCT-116 colon was found to be 16.4 µM; in the assay on HOP-92 NSCLC, 28.1 µM; in the assay with IGROV1 ovarian it was 18.9 µM; with LOX IMVI melanoma, 24 µM; with MALME-3M melanoma it was 13.9 µM; in the assay with SF-295 CNS it was 16.4 µM. The TGI in the assay on SF-539 CNS came out at 20.3 µM; in the assay on UACC-62 melanoma it was 10.9 µM.
Consider `COC(=O)/C(=C/c1ccc(OC)cc1)NC(=O)c1ccccc1`, for which the TGI in the assay on HCT-116 colon, in the assay with HOP-92 NSCLC, with IGROV1 ovarian, with LOX IMVI melanoma, with MALME-3M melanoma and in the assay with SF-295 CNS was more than 100 µM each time. The TGI in the assay with SF-539 CNS and with UACC-62 melanoma was more than 100 µM each time.
`CCCCN(CCCC)C(=O)C(=O)C(C)C(=O)CC` (configuration not stated): the TGI with HOP-92 NSCLC, in the assay on IGROV1 ovarian, in the assay with LOX IMVI melanoma, in the assay on MALME-3M melanoma, with SF-295 CNS and in the assay with SF-539 CNS was more than 100 µM in each case. The same molecule registered a TGI in the assay on UACC-62 melanoma of more than 100 µM.
With `O=[N+]([O-])[O-].O=[N+]([O-])[O-].[Au].[Au].c1ccc([P-]c2ccccc2)cc1.c1ccc([P-]c2ccccc2)cc1`, the GI50 in the assay on HCT-116 colon is 44.2 µM; with HOP-92 NSCLC, 26.6 µM; in the assay on IGROV1 ovarian it was 46.2 µM; in the assay with LOX IMVI melanoma it was 35.3 µM; in the assay on MALME-3M melanoma, 19.8 µM; with SF-295 CNS it was more than 100 µM. Further, the GI50 with SF-539 CNS is 43.9 µM; in the assay with UACC-62 melanoma, 30 µM. Moreover, the TGI is more than 100 µM in the assay with HCT-116 colon; 51.5 µM with HOP-92 NSCLC; more than 100 µM in the assay on IGROV1 ovarian; more than 100 µM with LOX IMVI melanoma; 47 µM in the assay with MALME-3M melanoma; more than 100 µM in the assay with SF-295 CNS. The TGI in the assay on SF-539 CNS worked out at 77.7 µM; in the assay on UACC-62 melanoma, 65.3 µM.

(Values after PubChem BioAssay (NCI).)
